pIC50, pKd: −log10 of the molar value. Where two headings read alike, the source gives them in different places. Bridge positions count the residues as written; N and C are the ends. Peptide text beside a SMILES is read from it.
Key:
PS:C4BP complex [1] = biological target: T1, PS:C4BP complex (Homo sapiens, UniProt P04003+P20851); test: Peptide inhibition of b-C4BP binding to PS-coated wells; details: b-C4BP 1 μg/ml, peptide 0-500 μM
T1 construct: Purified human C4BP was obtained from 5 liters (l) of human citrated plasma; from tissue; host or cells: human citrated plasma (C4BP); protein S by the method of Schwarz et al
T1 sequence (P04003 49-597): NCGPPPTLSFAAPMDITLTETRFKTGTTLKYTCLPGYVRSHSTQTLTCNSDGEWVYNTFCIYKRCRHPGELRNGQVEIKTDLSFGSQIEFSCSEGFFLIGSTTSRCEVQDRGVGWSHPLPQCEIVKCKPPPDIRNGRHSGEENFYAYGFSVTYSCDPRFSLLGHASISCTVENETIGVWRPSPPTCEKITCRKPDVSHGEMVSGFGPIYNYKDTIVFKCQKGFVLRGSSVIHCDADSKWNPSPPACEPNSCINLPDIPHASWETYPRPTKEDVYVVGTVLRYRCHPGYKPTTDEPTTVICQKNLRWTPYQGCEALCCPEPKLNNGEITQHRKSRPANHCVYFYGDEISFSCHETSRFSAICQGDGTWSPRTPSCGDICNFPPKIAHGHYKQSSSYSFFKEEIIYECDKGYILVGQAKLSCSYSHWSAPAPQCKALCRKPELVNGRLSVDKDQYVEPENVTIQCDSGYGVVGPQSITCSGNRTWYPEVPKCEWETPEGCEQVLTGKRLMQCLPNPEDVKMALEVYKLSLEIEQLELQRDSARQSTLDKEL
T1 sequence (P20851 18-252): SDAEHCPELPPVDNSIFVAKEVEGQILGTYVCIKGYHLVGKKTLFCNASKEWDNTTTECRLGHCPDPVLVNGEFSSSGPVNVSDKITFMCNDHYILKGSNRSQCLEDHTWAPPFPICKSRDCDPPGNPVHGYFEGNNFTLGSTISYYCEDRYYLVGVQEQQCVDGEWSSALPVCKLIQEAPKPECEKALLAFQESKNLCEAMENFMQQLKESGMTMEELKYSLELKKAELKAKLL
Description: An alternative approach was used to test the ability of the peptides, PSP-loop, PSP-424K and PSP-428K, in comparison with that seen with the PSP-12 peptide, in inhibiting the binding of C4BP to PS. For this assay, the microtiter wells were coated with purified PS diluted to a concentration of 10 μg/ml in carbonate-coating buffer as described above. The wells were maintained to allow the PS to bind to the well walls. After the maintenance period, the wells were blocked also as described above. The selected PSP peptides were separately admixed at various concentrations ranging from 0-500 μM with biotinylated-C4BP (b-C4BP) at a concentration of 1 μg/ml. The admixtures were maintained on a fluid phase plate for 2 hours at room temperature to form peptide-C4BP complexes.
Fifty μl of the complexed admixtures were separately admixed to the prepared […] and maintained for 1 hour at room temperature. Thereafter, the plate was washed and processed for developing as described above.

PS:C4BP complex [2] = biological target: T1, PS:C4BP complex; test: Fluid-phase peptide inhibition of b-PS binding to C4BP, detected on anti-C4BP polyclonal antibody-coated plates
Description: (§1) An alternative approach was used to test the ability of the peptides, PSP-loop, PSP-424K and PSP-428K, in comparison with that seen with the PSP-12 peptide, in inhibiting the binding of PS to C4BP, the result of which was detected on polyclonal antibody-coated plates. For this assay, C4BP, biotinylated-PS (b-PS) and PSP peptides were admixed together at the respective concentrations of 3 μg/ml, 0.6 μg/ml and at a range of 0-500 μM (V:V:V). The admixtures were maintained for 2 hours at room temperature on a fluid phase plate to allow the binding and/or inhibition thereof of PS to C4BP by the PS-derived peptides. After the maintenance period, 50 μl of the admixture were separately admixed to wells previously coated with 10 μg/ml of anti-C4BP IgG polyclonal antibody. The admixtures were maintained for 1 hour at room temperature to allow for the binding of C4BP to C4BP-antibody-coated plates. The binding of biotinylated complexes to the antibody-coated plates was detected as described in Example 5Aii.

PS:C4BP complex [3] = biological target: T1, PS:C4BP complex; test: Fluid-phase peptide inhibition of PS binding to b-C4BP, detected on MAb S-7-coated plates; details: b-C4BP 0.5 μg/ml, PS 1.0 μg/ml
Description: as §1, with “monoclonal” for “polyclonal”, “biotinylated-C4BP (b-C4BP), PS” for “C4BP, biotinylated-PS (b-PS)”, “0.5” for “3”, “1.0” for “0.6”, “MAb S-7 (ATCC No. HB 80819).” for “anti-C4BP IgG polyclonal antibody.”, “MAb S-7-antibody-coated” for “C4BP-antibody-coated”

[4] = biological target: T2, interaction of protein S with C4BP (Homo sapiens, UniProt P04003+P20851); details: in vitro; Walker et al., Weinstein et al.; cited from earlier work
T2 sequence (P04003 49-597): T1 sequence (P04003 49-597)
T2 sequence (P20851 18-252): T1 sequence (P20851 18-252)

PS:C4BP complex [5] = biological target: T1, PS:C4BP complex; test: Peptide Inhibition Assay: b-PS binding to C4BP in solid-phase
Description: Each of the peptides produced as described in Example 1 and listed in Table 1 was analyzed for its ability to inhibit the binding of native protein S in liquid-phase to C4BP in solid-phase.
Microtiter wells of a 96 well plate were coated with 50 μl of 10 μg/ml purified C4BP in carbonate buffer (0.02M Na2 CO3, pH 9.0, 0.02% Na-Azide). After blocking with 10% BSA in TBS, 50 μl of different concentrations of peptides diluted in washing buffer (TBS, 0.2% BSA, 5mM CaCl, 0.02% Tween 20) were separately admixed to C4BP-coated wells. After 2 hours at room temperature, 50 μl of a solution of biotinylated protein S, were admixed to each well to form a second binding admixture having a final concentration of 2 μg/ml. The plate was agitated and the samples Were incubated 1 hour at room temperature. The samples were discarded and the wells were washed 3 times with washing buffer. […] The resulting optical densities of the reaction solutions were read as described before in Example 2C. […]
where I is expressed as a percent; and where 100%=delta/min of the amount of b-PS which specifically bound to C4BP-coated wells in the absence of any competing PS-peptide; and where deltaT =the change in absorbance (405 nm) in the presence of competing PS-peptide; and where deltaC =the change in absorbance (405 nm) in the absence of competing PS-peptide.

C4BP = biological target: T3, C4BP (Homo sapiens, UniProt P04003+P20851); details: read-out: dissociation constant (Kd) for the protein S - C4BP interaction, cited from earlier work
T3 sequence (P04003 49-597): T1 sequence (P04003 49-597)
T3 sequence (P20851 18-252): T1 sequence (P20851 18-252)

CC[C@H](C)[C@H](NC(=O)CNC(=O)[C@@H](N)CO)C(=O)N[C@@H](CCCCN)C(=O)N[C@@H](CCCCN)C(=O)N[C@H](C(=O)N[C@H](C(=O)N[C@@H](CCC(N)=O)C(=O)N[C@@H](CCC(=O)O)C(=O)N[C@@H](CCCCN)C(=O)N[C@@H](CCC(N)=O)C(=O)N[C@@H](CC(N)=O)C(=O)N[C@@H](CCCCN)C(=O)N[C@@H](CS)C(N)=O)[C@@H](C)CC)[C@@H](C)CC [PSP-424K, SGIKKIIQEKQNKC] (H-SGIKKIIQEKQNKC-NH2; N-terminus assumed)
IC90 (PS:C4BP complex [1]): ~250 µM | inhibition of binding of b-PS to C4BP compared with PSP-loop (PS:C4BP complex [2]): inhibitory but with lower effectiveness | IC90 (PS:C4BP complex [3]): ~250 µM

CC[C@H](C)[C@H](NC(=O)[C@H](C)NC(=O)[C@H](CCC(=O)O)NC(=O)[C@H](CC(=O)O)NC(=O)[C@H](CC(C)C)NC(=O)[C@H](CC(=O)O)NC(=O)[C@H](CC(C)C)NC(=O)[C@H](CCC(N)=O)NC(=O)[C@@H](NC(=O)CN)C(C)C)C(N)=O [PSP-605, GVQLDLDEAI] (H-GVQLDLDEAI-NH2; N-terminus assumed)
inhibition of the interaction of protein S with C4BP [4]: inhibits the interaction of protein S with C4BP in vitro

CC[C@H](C)[C@@H]1NC(=O)[C@H](CO)NC(=O)[C@H](C)NC(=O)CNC(=O)[C@H](CCC(N)=O)NC(=O)[C@H](CCCCN)NC(=O)[C@H](CCSC)NC(=O)[C@H](CC(C)C)NC(=O)[C@H](CC(N)=O)NC(=O)[C@H](Cc2c[nH]c3ccccc23)NC(=O)[C@H](CO)NC(=O)[C@H](CCCNC(=N)N)NC(=O)[C@H]([C@@H](C)CC)NC(=O)[C@@H](N)CSSC[C@@H](C(N)=O)NC(=O)[C@H](Cc2c[nH]cn2)NC(=O)[C@H](CCCCN)NC(=O)[C@H](CC(N)=O)NC(=O)[C@H](CCC(N)=O)NC(=O)[C@H](CCCCN)NC(=O)[C@H](CCC(=O)O)NC(=O)[C@H](CCC(N)=O)NC(=O)[C@H]([C@@H](C)CC)NC(=O)[C@H]([C@@H](C)CC)NC(=O)[C@H](CCC(=O)O)NC(=O)[C@H](CCCCN)NC1=O [PSP-loop] (H-CIRSWNLMKQGASIKEIIQEKQNKHC-NH2; disulfide 1-26 (inferred); N-terminus and C-terminus assumed)
peptide concentration that completely inhibits the binding of PS to C4BP (PS:C4BP complex [5]; subsequent experiments): approximately 250 μM | pIC50 (PS:C4BP complex [2]; C4BP 3 μg/ml, b-PS 0.6 μg/ml): ~4.40

CPEGYRYNLKSKSC [PSP-7]
inhibition of PS:C4BP complex formation relative to PS-peptides from other regions of protein S (PS:C4BP complex [5]): strong inhibition

Protein S: vitamin K-dependent single chain plasma glycoprotein of 75,000 daltons, cofactor to activated protein C
pKd (C4BP; in the presence of Ca++): 9.22 | pKd (C4BP; in the presence of EDTA): 9.00

Reference: patent US5321123A, “Protein S polypeptides and anti-peptide antibodies that inhibit protein S binding to C4B binding protein, diagnostic systems and therapeutic methods” (The Scripps Research Institute, priority 1992, dated 1994)
